Ends that are not written are not given here.
Test system: interpubic ligament
Experiment: murine pubic symphysis assay (MPS)
Assay type: in vivo, mice
Settings: for biological activity in the MPS assay (biological dose response comparison): estradiol-primed female mice, subcutaneous injection, ligament measured 18-20 hours later
Method: The human relaxin and human relaxin analogs were tested in bioassays. The murine pubic symphysis assay (MPS) uses Charles River albino CFW female mice weighing 18-20 g., J. St. Louis, Can. J. Physiol. Pharmacol. 59, 507-512 (1981). Estradiol priming solution is 5 μg estradiol 17β-cyclopentylpropionate in 0.1 ml peanut oil. Human relaxin dose solutions are at concentrations of 2.5, 5.0, 10.0, 20.0, 40.0, and 80.0 μg/ml in a 1% water solution of benzopurpurine 4B. When mice have been housed for at least six days in quarantine and weigh 18-20 g, each one is given a subcutaneous injection of estradiol priming solution. Exactly seven days later mice are injected subcutaneously with 0.2 ml of the appropriate human relaxin dose solution. Between 18 and 20 hours after the human relaxin injection the mice were sacrificed by cervical dislocation. The interpubic ligament is exposed and measured with a micrometer.
The rat uterine contractility in vitro bioassay measures human relaxin ability to relax smooth muscle in the presence of electrically stimulated contractions, J. St. Louis, (1981) Can. J. Physiol. Pharmacol. 59, 507-512. The murine pubic symphysis ligament in vivo bioassay measures relaxin's remodeling effect on connective tissue, Steinetz, B. G. et al. (1960) Endocrinology 67, 102. […] The MPS does responses indicate equipotence for natural human relaxin and H2(B2-33 A24) B Lys^4 B Ala^25, FIG. 3. […] All of the human analogues and natural sequence human relaxin are essentially indistinguishable in the MPS bioassay.

Row | Molecule | biological activity in the MPS assay (biological dose response comparison) | MPS dose response curve, slope / parallelism relative to the other relaxins (mouse, in vivo)
1 | CC[C@H](C)[C@@H]1NC(=O)[C@H](C)NC(=O)[C@H]([C@@H](C)CC)NC(=O)[C@H](CCC(N)=O)NC(=O)[C@H](C)NC(=O)[C@H](CCCNC(=N)N)NC(=O)[C@H](C(C)C)NC(=O)[C@H](CC(C)C)NC(=O)[C@H](CCC(=O)O)NC(=O)[C@H](CCCNC(=N)N)NC(=O)CNC(=O)[C@@H](NC(=O)[C@H](CC(C)C)NC(=O)[C@H](CCCCN)NC(=O)[C@@H](NC(=O)[C@@H](NC(=O)[C@H](CCC(=O)O)NC(=O)[C@H](CCC(=O)O)NC(=O)[C@H](CCCCN)NC(=O)[C@H](Cc2c[nH]c3ccccc23)NC(=O)[C@@H](N)CO)C(C)C)[C@@H](C)CC)CSSC[C@@H]2NC(=O)[C@@H](NC(=O)[C@H](CCCCN)NC(=O)[C@H](CC(N)=O)NC(=O)[C@H](C)NC(=O)[C@H](CC(C)C)NC(=O)[C@H](C)NC(=O)[C@H](CO)NC(=O)[C@H](Cc3ccc(O)cc3)NC(=O)[C@H](CC(C)C)NC(=O)[C@@H]3CCC(=O)N3)CSSC[C@H](NC(=O)CNC(=O)[C@H](C(C)C)NC(=O)[C@H](Cc3c[nH]cn3)NC2=O)C(=O)N[C@@H]([C@@H](C)O)C(=O)N[C@@H](CCCCN)C(=O)N[C@@H](CCCNC(=N)N)C(=O)N[C@@H](CO)C(=O)N[C@@H](CC(C)C)C(=O)N[C@@H](C)C(=O)N[C@@H](CCCNC(=N)N)C(=O)N[C@@H](Cc2ccccc2)C(=O)N[C@H](C(=O)O)CSSC[C@@H](C(=O)NCC(=O)N[C@@H](C)C(=O)N[C@@H](CO)C(=O)N[C@H](C(=O)N[C@@H](Cc2c[nH]c3ccccc23)C(=O)N[C@@H](CO)C(=O)N[C@@H](CCCCN)C(=O)N[C@@H](CCCNC(=N)N)C(=O)N[C@@H](CO)C(=O)N[C@@H](CC(C)C)C(=O)O)[C@@H](C)O)NC1=O | biological activity | 
2 | CC[C@H](C)[C@@H]1NC(=O)[C@H](C)NC(=O)[C@H]([C@@H](C)CC)NC(=O)[C@H](CCC(N)=O)NC(=O)[C@H](C)NC(=O)[C@H](CCCNC(=N)N)NC(=O)[C@H](C(C)C)NC(=O)[C@H](CC(C)C)NC(=O)[C@H](CCC(=O)O)NC(=O)[C@H](CCCNC(=N)N)NC(=O)CNC(=O)[C@@H](NC(=O)[C@H](CC(C)C)NC(=O)[C@H](CCCCN)NC(=O)[C@@H](NC(=O)[C@@H](NC(=O)[C@H](CCC(=O)O)NC(=O)[C@H](CCC(=O)O)NC(=O)[C@H](CCCCN)NC(=O)[C@H](Cc2c[nH]c3ccccc23)NC(=O)[C@H](CO)NC(=O)[C@@H](N)CC(=O)O)C(C)C)[C@@H](C)CC)CSSC[C@@H]2NC(=O)[C@@H](NC(=O)[C@H](CCCCN)NC(=O)[C@H](CC(N)=O)NC(=O)[C@H](C)NC(=O)[C@H](CC(C)C)NC(=O)[C@H](C)NC(=O)[C@H](CO)NC(=O)[C@H](Cc3ccc(O)cc3)NC(=O)[C@H](CC(C)C)NC(=O)[C@@H]3CCC(=O)N3)CSSC[C@H](NC(=O)CNC(=O)[C@H](C(C)C)NC(=O)[C@H](Cc3c[nH]cn3)NC2=O)C(=O)N[C@@H]([C@@H](C)O)C(=O)N[C@@H](CCCCN)C(=O)N[C@@H](CCCNC(=N)N)C(=O)N[C@@H](CO)C(=O)N[C@@H](CC(C)C)C(=O)N[C@@H](C)C(=O)N[C@@H](CCCNC(=N)N)C(=O)N[C@@H](Cc2ccccc2)C(=O)N[C@H](C(=O)O)CSSC[C@@H](C(=O)NCC(=O)N[C@@H](C)C(=O)N[C@@H](CO)C(=O)N[C@H](C(=O)N[C@@H](Cc2c[nH]c3ccccc23)C(=O)N[C@@H](CO)C(=O)N[C@@H](CCCCN)C(=O)N[C@@H](CCCNC(=N)N)C(=O)N[C@@H](CO)C(=O)N[C@@H](CC(C)C)C(=O)O)[C@@H](C)O)NC1=O | biological activity | 
3 | porcine relaxin: Porcine relaxin, used for the standard curve in the RUC assay and compared in MPS (Relaxin B chain QSTNDFIKACGRELVRLWVEICGSVSWGRTAL; Relaxin A chain RMTLSEKCCQVGCIRKDIARLC; not fully specified; ends and bridges not checked; UniProt P01348 25-56; P01348 161-182, looked up) [reference compound] |  | non-parallel response
